“Also recorded” adds a separate entry of the source. Where a SMILES comes first, the peptide text is derived from it. Bridges are numbered along the chain shown (N, C = ends). Roman numbers before positions name the chains, in order. Triazole bridges read from a SMILES are 1,4-linked. Where no end group is shown, it is not given here. [ ]: non-standard residue; d: D form. The star is where a group is joined. Biotin = O=C1N[C@H]2[C@H](CS[C@H]2CCCCC(=O)*)N1; Lys(N3) = [N-]=[N+]=NCCCC[C@H](N)C(=O)O; PEG6 = NCCOCCOCCOCCOCCOCCOCCC(=O)O; dPra = C#CC[C@@H](N)C(=O)O
Key:
[1] = target: T1, E17K PH Domain binding to PIP3 (Homo sapiens, UniProt P31749, E17K); test: PIP3 agarose inhibition assay, E17K; type: biochemical; conditions: ligand 2.38 μM (10x protein), protein 234 nM, western blot, in words
T1 construct: 2 μg of either wildtype or mutant PH Domain-GFP protein (234 nM); made in house; host or cells: HEK-293-6E (used as cell lysate, not purified)
Text: The yleaf ligand, the biligand, and the triligand were all tested for their ability to block the E17K PHD binding with PIP3. For this test, PIP3-coated resin (Echelon Biosciences) was used to mimic the PHD interaction with the cell membrane, and could be used to bind the protein as in an immunoprecipitation assay^22. The presence of an effective blocking compound would reduce the ability of the resin to capture the protein, and would thus appear as a diminished signal in the corresponding western blot assay. A control lane containing no capture agent was used to show baseline binding of the protein to the PIP3 resin. […] In an expanded study, we compared the amount of E17K and WT PH domain binding relative to the amount of added triligand (FIG. 5e).
PIP3 Agarose beads (Echelon) were used to detect for the inhibition of PH Domain binding to its substrate, PIP3, upon incubation with the anchor candidate peptide ligands. To test the inhibition of each of the ligands, anchor biligand and triligand, 20 μL of resin slurry was added to each of four tubes and washed three times with 1×TBS. Protein, 2 μg (234 nM) of E17K mutant, was preincubated for one hour at room temperature with either DMSO (no protein blank), anchor, biligand or triligand at 2.38 μM (10× in relation to protein) in 200 μL of 1×TBS. For the control, mutant PH Domain was incubated with 1×TBS and 1 μL […] to mimic the ligand conditions. These protein samples were then added to PIP3 agarose in a Spin-X tube and incubated at room temperature for two hours. The resin was washed three times with 1×TBS with 0.25% IGEPAL CA-630, spun out to dry completely, then denatured with 50 μL 3×SDS gel loading buffer for 10 min at 95° C. The gel loading buffer was spun out of the resin and detected via western blot as per the Streptavidin-Agarose Pulldowns. Inhibition was indicated by a decrease in the amount of PH Domain that was pulled down by the resin.
Expanded inhibition blots with either WT of E17K mutant protein were performed in a similar fashion. Twelve tubes of 20 μL of PIP3 agarose were washed three times with 1×TBS. 2 μg of either wildtype or mutant PH Domain-GFP protein (234 nM) in 200 uL 1×TBS were preincubated for 30 minutes with differing concentrations of triligand: 0.1 eq (23.4 nM), 1 eq (234 nM), 10 eq (2.34 μM), 100 eq (23.4 μM), and 1000 eq (234 μM). The protein and triligand solutions were then incubated with the PIP3 resin for 2 hours at room temperature. The resins were washed, eluted, and blotted as per all PH Domain western blots.

[2] = target: T2, E17K GST-PH Domain (E17K Akt1) (Homo sapiens, UniProt P31749, E17K); test: Full curve ELISA, immobilized ligand, E17K protein; type: binding; conditions: in words
T2 construct: The first 124 N-terminal amino acids from full length Akt1 were used as the PH Domain DNA; GST (N); thrombin cleavage site (C); 6His (C); made in house; host or cells: E. coli BL21-DE3-pLys
Description: The full curve ELISAs were obtained using streptavidin coated ELISA plates (Pierce). The ligands—anchor, biligand, triligand and “eflya” scrambled anchor peptide blank—were laid down at a concentration of 1 μM for one hour. Two lanes of each ligand were used on the plate for both proteins—WT and E17K GST-PH Domain. The plates were blocked with 5% BSA for two hours. Dilutions of both WT and E17K GST-PH Domain proteins were made in 0.5% BSA in 1×TBS starting from 1 μM-0.5 nM by serially diluting 1:2 down a series of 8 samples. For each ligand, a no protein blank was also used. The proteins were incubated with the blocked plate for one hour, washed 3× with 1×TBST+0.5% BSA and tapped dry, then detected with a 1:10,000 dilution of an HRP conjugated anti-GST pAb. The plate was again washed 3× with 1×TBST and tapped dry. It was developed with a 1:1 solution of TMB substrate and development was stopped with 1M H2SO4 and read on a plate reader.

[3] = target: T3, E17K mutant PH Domain (PHD) of Akt1 (Homo sapiens, UniProt P31749, E17K); test: Streptavidin-agarose immunoprecipitation (pulldown), E17K; type: binding; conditions: in words
T3 construct: The first 124 N-terminal amino acids from full length Akt1 were used as the PH Domain DNA; made in house; host or cells: E. coli
Description: (§1) Four biligand candidates were chosen based on their hydrophobicity and sequence homology using principal component analysis (FIG. 25). Biligands were synthesized by coupling the 2° ligand onto Rink Amide Resin on the Titan peptide synthesizer. The amide group on the end of the Lys(N3) was capped by shaking the resin with 2 mL acetic anhydride, 2 mL NMP and 0.5 mL DIEA for 3×10 minutes, then washed with NMP. FMOC-Propargylglycine-Otbu (Pra) was clicked onto the Lys(N3) on the 2° ligand by incubating 2 eq of the Pra amino acid with 2 eq CuI and 2 eq ascorbic acid with 1 eq azide on resin in 20% piperidine/NMP for 3 hours. The resin was washed 5×4 mL with a chelating solution of 1 g sodium diethyldithiocarbamate in 20 mL NMP and 1 mL DIEA. The anchor was then built onto the 2° ligand on bead, and an N-terminal PEG5-biotin tag were added. Assays were performed exactly as for the anchor ligands, except for two key differences. The biligand assays were done with 6 ug of GST-tagged PHD protein, instead of the untagged PHD that was used in the anchor pulldowns. The pull-downs were also conducted out of 1% serum in 1×TBS, as opposed to just 1×TBS.
(§2) Pulldown assays were done on Streptavidin Agarose resin from Invitrogen. The resin was incubated with N-terminal biotinylated anchor peptide candidates identified via the ClusterLigand sequence analysis. The anchor candidate coated beads were then incubated with either the wildtype or mutant protein to compare the selectivity of the ligands, as well as the binding ability. The bound protein was eluted and western blotted to compare the amount of protein present for each sample.
(§3) Relative protein band sizes were analyzed to compare binding between the anchor candidates and were used to determine selectivity for either wildtype or mutant PH Domain (FIG. 11). […] Both of these ligands look fairly selective for their respective PH Domain.

WT GST-PH Domain (Akt1) = target: T4, WT GST-PH Domain (Akt1) (Homo sapiens, UniProt P31749); test: Full curve ELISA, immobilized ligand, WT protein; type: binding; conditions: in words
T4 construct: The first 124 N-terminal amino acids from full length Akt1 were used as the PH Domain DNA; GST (N); thrombin cleavage site (C); 6His (C); made in house; host or cells: E. coli BL21-DE3-pLys
Description: The full curve ELISAs were obtained using streptavidin coated ELISA plates (Pierce). The ligands—anchor, biligand, triligand and “eflya” scrambled anchor peptide blank—were laid down at a concentration of 1 μM for one hour. Two lanes of each ligand were used on the plate for both proteins—WT and E17K GST-PH Domain. The plates were blocked with 5% BSA for two hours. Dilutions of both WT and E17K GST-PH Domain proteins were made in 0.5% BSA in 1×TBS starting from 1 μM-0.5 nM by serially diluting 1:2 down a series of 8 samples. For each ligand, a no protein blank was also used. The proteins were incubated with the blocked plate for one hour, washed 3× with 1×TBST+0.5% BSA and tapped dry, then detected with a 1:10,000 dilution of an HRP conjugated anti-GST pAb. The plate was again washed 3× with 1×TBST and tapped dry. It was developed with a 1:1 solution of TMB substrate and development was stopped with 1M H2SO4 and read on a plate reader. The curves in FIG. 4B were plotted by normalizing the signal by the blank wells, and were fitted to a Hill function in GraphPad using a common saturation and slope (Bmax=1.466+/−0.03, h=0.7383+/−0.025).

[4] = target: T5, wildtype PH Domain (PHD) of Akt1 (Homo sapiens, UniProt P31749); test: Streptavidin-agarose immunoprecipitation (pulldown), WT; type: binding; conditions: in words
T5 construct: The first 124 N-terminal amino acids from full length Akt1 were used as the PH Domain DNA; made in house; host or cells: E. coli
Description: as §1, §2, §3

[5] = target: T6, E17K 33-mer fragment (6His-tagged) (Homo sapiens, UniProt P31749, E17K/H13K); test: HPLC-detected immunoprecipitation (pulldown), E17K 33-mer; type: binding; conditions: 50 μM epitope, overnight 4° C., guanidine elution, in words
T6 construct: made in house; host or cells: chemical synthesis (Fmoc SPPS)
T6 sequence (P31749 1-33 H13K/E17K limits assumed): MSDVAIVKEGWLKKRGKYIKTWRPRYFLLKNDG
Text: The label-modified yleaf (SEQ ID NO: 43) peptide (FIG. 2a and FIG. 12) was subjected to a variety of binding assays against the synthesized WT and E17K 33-mer PHD fragments prepared without the biotin label and alkyne click handle. First, the yleaf (SEQ ID NO: 43) peptide was used in immunoprecipitation assays to pull-down either the WT or E17K mutant 6His-tagged (SEQ ID NO: 4) 33-mer peptide fragments (FIGS. 13 and 14), as opposed to the full-length proteins that were used to initially validate the candidates. Typical immunoprecipitation assays involve western blotting to estimate the amount of protein binding, but 33-mer peptide fragments are not easily quantified on a blot. Because of this, the amount of peptide epitope precipitated in these assays was quantified via injection on an analytical HPLC. These assays further confirmed preferential yleaf (SEQ ID NO: 43) ligand binding to the E17K 33-mer epitope relative to the WT epitope (FIG. 15).
Pulldown assays with the biotinylated anchor and his-tagged 33-mer epitope were performed to verify epitope targeting. […] Because small peptide fragments like the 33-mer epitope are difficult to transfer to and detect on the nitrocellulose membrane as for a traditional Western blot, the amount of binding in these assays was detected via HPLC. […]

[6] = 6 ug GST-tagged PHD, 1% serum in 1xTBS, western blot, listed as yleaf-yksy
[7] = streptavidin agarose, 1xTBS, western blot band size

T3 sequence (P31749 1-124 E17K): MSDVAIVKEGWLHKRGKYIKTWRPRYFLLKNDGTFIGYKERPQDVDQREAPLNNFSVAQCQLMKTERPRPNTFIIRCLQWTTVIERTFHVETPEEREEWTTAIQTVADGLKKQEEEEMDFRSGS
T5 sequence (P31749 1-124): as the sequence (P31749 1-124 E17K) above, with K17E counted along it
T2 sequence (P31749 1-124 E17K): as the sequence (P31749 1-124 E17K) above
T1 sequence (P31749 5-108 E17K limits assumed): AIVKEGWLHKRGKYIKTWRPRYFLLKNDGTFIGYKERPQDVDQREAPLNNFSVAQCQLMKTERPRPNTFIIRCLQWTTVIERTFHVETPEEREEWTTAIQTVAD
T4 sequence (P31749 1-124): as the sequence (P31749 1-124 E17K) above, with K17E counted along it

Compound | inhibition of E17K PH Domain binding to PIP3-coated resin [1] | inhibition of E17K PH Domain binding to PIP3-coated resin ([1]; listed as biligand 7) | change in binding affinity for the E17K protein versus the preceding ligand (ELISA) [2] | pulldown of E17K GST-PHD by biligand candidates [3, 6] | change in binding affinity for the WT protein versus the preceding ligand (ELISA) (WT GST-PH Domain (Akt1)) | pulldown of WT GST-PHD by biligand candidates [4, 6] | pulldown of E17K mutant PH Domain by biotinylated anchor candidates [3, 7] | amount of E17K 33-mer fragment pulled down (HPLC peak) [5] | pulldown of wildtype PH Domain by biotinylated anchor candidates [4, 7]
CC(=O)N[C@@H](CCCCn1cc(C[C@@H](NC(=O)[C@@H](Cc2ccccc2)NC(=O)[C@@H](C)NC(=O)[C@@H](CCC(=O)O)NC(=O)[C@@H](CC(C)C)NC(=O)[C@@H](Cc2ccc(O)cc2)NC(=O)CCOCCOCCOCCOCCOCCOCCNC(=O)CCCC[C@@H]2SC[C@@H]3NC(=O)N[C@@H]32)C(=O)O)nn1)C(=O)N[C@H](Cc1ccc(O)cc1)C(=O)N[C@H](CCCCN)C(=O)N[C@H](CO)C(=O)N[C@H](Cc1ccc(O)cc1)C(N)=O [biligand] (I: {Biotin-PEG6}-[dY][dL][dE][dA][dF][dPra]-OH / II: Ac-[Lys(N3)][dY][dK][dS][dY]-NH2; triazole I:6-II:1) | exhibited the ability to block the PHD-PIP3 interaction | decreased binding of the protein | an increase in affinity for the E17K mutant protein | the greatest signal in binding the E17K protein; also recorded: the highest signal for the E17K protein | an even larger increase in affinity for the WT protein | the lowest in binding the WT protein; also recorded: the lowest off-target signal to the WT protein | – | – | –
iryrn: triligand candidate: biligand yleaf-yksy with tertiary ligand iryrn (SEQ ID NO: 92) (IRYRN) | – | – | a significant improvement on the binding affinity for the E17K protein | – | an even bigger increase for the WT protein | – | – | – | –
eefef ([dE][dE][dF][dE][dF]) [off-target control] | – | – | – | – | – | – | the least pulldown for the mutant protein | much less pull down than the yleaf | the only pulldown of the wildtype protein

— US10975123B2, “Mutant Akt-specific capture agents, compositions, and methods of using and making” (California Institute of Technology, priority 2014, dated 2021)
